In brackets after ≈: the same amount, converted by molar mass. Entries after “also recorded” stand apart in the source; their conditions may differ.
Legend:
Format in all cases: physicochemical
[1] = Dissolution rate study of griseofulvin compositions (saturation dissolution apparatus); conditions: for 20% dissolution time: 5 mg gris in 500 ml water at 25°, 100 r.p.m.
Description: A recycling and automatic recording system was used for all dissolution rate studies. The dissolution rate of gris in different physical forms were run in 500 ml. distilled water in a 600 ml. beaker at room temperature.
Unless otherwise specified, samples of 80 to 200 mesh powder were transferred directly into the dissolution medium and stirred with a stainless steel paddle. The paddle, 5.5 × 2.7 cm., was placed at the center of a 500 ml. dissolution medium and rotated at a rate of 100 r.p.m. The solution was pumped by a peristatic pump (Multi-speed Transmission, model No. 6000-000, available from the Harvard Apparatus Co., Dover, Mass.) at a rate of 80 to 100 ml./min. through a glass filter stick to a 1-cm. flow cell and then back to the dissolution apparatus. The absorbance of the solution is monitored by a recording Beckman DB spectrophotometer at either the miximum peak of gris, 292 mu., or minimum absorbance, 272 mu. depending upon the concentration of gris. In the system of gris-PEG 20,000, 324 mu. was used because of possible interference of absorption by the polymer at 272 mu. The volume of the solution in the tubing of the recycling system is about 10 ml. At the flow rate used, the monitored absorbance will reach 90% of the equilibrium valve in 15 sec. Therefore, the lag time in the measurement of dissolution rate is essentially negligible. In the study of the dissolution rate at room temperature, the water is preadjusted to 25° C. The ambient temperature of the room ranged less than 2° from this temperature.
Samples of micronized gris and of gris of 100 to 200 mesh particle size distribution were also run. […] All samples were run in duplicate.
^a Five milligrams gris in 500 ml. of water at 25°.
^b Dissolution times taken from recorded absorbance readings.

[2] = Solubility of griseofulvin in water; conditions: 25° C., read-out: solubility of gris
[3] = Stability of gris on preparing the solid solutions (melting point, spectra, thin layer chromatography); conditions: following solvent or direct fusion methods
Description: A number of tests were made to establish that the gris was not decomposed in any manner following either the solvent or the direct fusion methods of preparing the solid solutions. The melting point, the spectra of the ultra-violet, the infrared and fluorescence are all identical to those of the gris used as a starting material.

[4] = Dissolution studies involving other materials (time for 20% dissolution); conditions: in water
Description: Dissolution studies were similarly made involving other materials.

SMILES	20% dissolution time [1]	time to 20% dissolution [4]	further results
COC1=CC(=O)C[C@@H](C)[C@]12Oc1c(Cl)c(OC)cc(OC)c1C2=O [100-200 Mesh pure gris, griseofulvin]	60.0 min		
COC1=CC(=O)C[C@@H](C)[C@]12Oc1c(Cl)c(OC)cc(OC)c1C2=O [Micronized gris (wetted), griseofulvin]	2.0 min		
COC1=CC(=O)C[C@@H](C)[C@]12Oc1c(Cl)c(OC)cc(OC)c1C2=O [Micronizied gris (nonwetted), griseofulvin]	25.0 min		dissolution rate (in words) ([1]; compared with other gris forms, wetting with 2 ml of 0.2% polysorbate (Tween 20), micronized gris): markedly slower than that of the same powder when wetted first; also recorded: almost the same dissolution rate as the 100-200 mish gris
COC1=CC(=O)C[C@@H](C)[C@]12Oc1c(Cl)c(OC)cc(OC)c1C2=O [gris, griseofulvin]			solubility [2]: 10 µg/mL (≈ 28.3 µM); decomposition of gris (in words) [3]: no additional spots were detected
CC(=O)OCC(=O)[C@@]1(O)CC[C@H]2[C@@H]3CCC4=CC(=O)CC[C@]4(C)[C@H]3[C@@H](O)C[C@@]21C [hydrocortisone acetate]		more than 20 minutes	
C[C@]12CCC(=O)C=C1CC[C@@H]1[C@@H]2CC[C@@]2(C)[C@H]1CC[C@]2(C)O [methyltestosterone]		2 min	
C[C@H]1O[C@@H](O[C@H]2[C@@H](O)C[C@H](O[C@H]3[C@@H](O)C[C@H](O[C@H]4CC[C@@]5(C)[C@H](CC[C@@H]6[C@@H]5CC[C@]5(C)[C@@H](C7=CC(=O)OC7)CC[C@]65O)C4)O[C@@H]3C)O[C@@H]2C)C[C@H](O)[C@@H]1O [microcrystalline digitoxin, digitoxin]		about 15 minutes	
CC(=O)OCC(=O)[C@@]1(O)CC[C@H]2[C@@H]3CCC4=CC(=O)C=C[C@]4(C)[C@H]3[C@@H](O)C[C@@]21C [prednisolone acetate]		8 min	
